The source of these data is paper PMC6843786, “Temporin-SHa and Its Analogs as Potential Candidates for the Treatment of Helicobacter pylori” (Biomolecules, 2019).

The structures appear in SMILES notation.

Data set [1] has as its system human gastric explants. Briefly: Ex vivo toxicity assay, histological examination (H&E) of human gastric explants. It counts as cell-based. Particulars: 2, 4 or 8 h; peptides 100 µM, CTAB 300 µM; H&E staining. On the procedure: To further evaluate the innocuity of the peptides, ex vivo experiments were performed using human explants as previously described. Briefly, human gastric tissue samples were obtained from patients undergoing surgery at the Hospital Laveran (Marseille, France), unit of gastrointestinal surgery according to a collaborative clinical transfer project. The procedures were approved by the French ethic committee (CODECOH n° DC-2019-3402). All patients agreed for the use of their tissues for research purposes. Samples were taken from healthy patients during sleeve gastrectomy from macroscopically unaffected area as identified by the surgeons. After resection, the specimens were placed in ice-cold oxygenated sterile DMEM solution containing 1% streptomycin/penicillin solution and 50 μg/mL gentamycin and were directly transferred to the laboratory within 15 min on ice. Gastric tissues were extensively washed and maintained in ice-cold culture media containing 1% streptomycin/penicillin solution and 50 μg/mL gentamycin. […] Quantification of the release of LDH was also used in addition to microscopic observations to evaluate the impact of peptides on human gastric explants. […] The LDH activity was measured using previously described protocol with minor changes. […] Increase in OD339nm was then measured at 30 °C after 0, 1, 5, and 10 min using microplate reader (Synergy Mx, Biotek). […]

The test system of data set [2] is human gastric explants. Briefly: Ex vivo toxicity assay, LDH release from human gastric explants. Particulars: peptides 100 µM, CTAB 300 µM, % of total release. It counts as cell-based. On the procedure: To further evaluate the innocuity of the peptides, ex vivo experiments were performed using human explants as previously described. Briefly, human gastric tissue samples were obtained from patients undergoing surgery at the Hospital Laveran (Marseille, France), unit of gastrointestinal surgery according to a collaborative clinical transfer project. The procedures were approved by the French ethic committee (CODECOH n° DC-2019-3402). All patients agreed for the use of their tissues for research purposes. Samples were taken from healthy patients during sleeve gastrectomy from macroscopically unaffected area as identified by the surgeons. After resection, the specimens were placed in ice-cold oxygenated sterile DMEM solution containing 1% streptomycin/penicillin solution and 50 μg/mL gentamycin and were directly transferred to the laboratory within 15 min on ice. Gastric tissues were extensively washed and maintained in ice-cold culture media containing 1% streptomycin/penicillin solution and 50 μg/mL gentamycin. Tissues were cleaned from vascular vessels and conjunctive tissue using forceps under binocular microscope. Gastric explants (wet weight of 20–30 mg) were then isolated from the cleaned resections using surgical punch (diameter of 0.5 cm^2). […] Finally, the explants were washed three times with culture media without antibiotics and transferred into 24-well plates before being incubated in RPMI media without fetal bovine serum, antibiotics and phenol red at 37 °C in the 5% CO2 incubator with 100 µM of peptides for 2, 4 or 8 h. Phenol red was omitted from the culture media since it interferes with the lactate dehydrogenase (LDH) assay. The detergent cetyl-trimethylammonium bromide (CTAB) at 300 µM was used as positive control of tissue damages. At the end of the incubation, the explants were collected and washed three times with PBS^++ and were fixed overnight at 4 °C with PFA diluted at 4% in PBS. After that, gastric explants were washed twice with PBS and were included in an inclusion medium (TFM-EMS), in transverse position to allow cutting in the crypt-villosity axis using cryostat (Leica CM3050) (Leica Microsystems, Nanterre, France). Four sections of 5 µm thickness were obtained per explant, each section being separated by 100 µm from the next in order to cover all the tissue. Explants were then stained using hematoxylin and eosin (H&E) staining protocol. Briefly, samples were incubated for 8 min in hematoxylin (Sigma-Aldrich) and then allowed to stain by incubation with water for 2 min. Then explants were incubated for 1 min in eosin (Sigma-Aldrich) and then in water for 1 min. This was followed by incubation of explants with ethanol at concentration of 70% then 95% and finally 100% for 2 min each. After blotting excess ethanol, gastric explants were incubated for 15 min with xylene and mounted with coverslip using Eukitt mounting media (EMS, Hatfield, PA, USA). Finally, explants were left overnight to dry before examination of tissue organization under the microscope (Leitz DMRB microscope (Leïca), equipped with Leïca DFC 450C camera). Quantification of the release of LDH was also used in addition to microscopic observations to evaluate the impact of peptides on human gastric explants. Briefly, after 2, 4 or 8 h of incubation of the explants with the peptides, the supernatants of the wells were collected and stored at -80 °C before the LDH assay. The LDH activity was measured using previously described protocol with minor changes. Briefly, 50 µL of supernatants obtained from explants were mixed with 200 µL of Tris-Lactate buffer (containing Tris HCl at 86 mM, L-Lactate at 56 mM and KCl at 172 mM, pH 9.3, all from Sigma-Aldrich) and 20 µL of NAD (at 172 mM, Sigma-Aldrich) into well of 96-wells plates. Increase in OD339nm was then measured at 30 °C after 0, 1, 5, and 10 min using microplate reader (Synergy Mx, Biotek). […]

Take `CCCCCCCCCCCCCCCC[N+](C)(C)C` [CTAB, cetyl-trimethylammonium bromide, reference compound]: the “tissue organization by microscopic observation” value in data set [1] was “major alterations of the tissue architecture”. Besides, the LDH release worked out at 81.1% in data set [2] (2 h), 90.3% in data set [2] (4 h) and 100% in data set [2] (8 h).
